From ChEMBL document CHEMBL1201862, “PubChem BioAssay data set” (2004) come the findings set out here.

A word on the AC50: it is the concentration giving half of the maximal activity seen. In general, EC50 refers to the concentration needed to bring the measured effect to its halfway point. As usually defined, the IC50 is the midpoint of a concentration-inhibition curve.

Activity calls are given as the source filed them.

Assay [1] has as its target FAD-linked sulfhydryl oxidase ALR (Homo sapiens, UniProt P55789). Description: inhibitors of human ALR sulfhydryl oxidase, dose response, biochemical, H2O2 detection, luminescence, cherry-pick (AID 493248).
A short description of assay [2]: microbe, parasite or virus in culture. In kind it is functional. The conditions noted are these: Mycobacterium tuberculosis.
The target of the next assay is T1, Protein RecA (Mycobacterium tuberculosis, UniProt P9WHJ3).
T1 sequence (P9WHJ3 whole entry): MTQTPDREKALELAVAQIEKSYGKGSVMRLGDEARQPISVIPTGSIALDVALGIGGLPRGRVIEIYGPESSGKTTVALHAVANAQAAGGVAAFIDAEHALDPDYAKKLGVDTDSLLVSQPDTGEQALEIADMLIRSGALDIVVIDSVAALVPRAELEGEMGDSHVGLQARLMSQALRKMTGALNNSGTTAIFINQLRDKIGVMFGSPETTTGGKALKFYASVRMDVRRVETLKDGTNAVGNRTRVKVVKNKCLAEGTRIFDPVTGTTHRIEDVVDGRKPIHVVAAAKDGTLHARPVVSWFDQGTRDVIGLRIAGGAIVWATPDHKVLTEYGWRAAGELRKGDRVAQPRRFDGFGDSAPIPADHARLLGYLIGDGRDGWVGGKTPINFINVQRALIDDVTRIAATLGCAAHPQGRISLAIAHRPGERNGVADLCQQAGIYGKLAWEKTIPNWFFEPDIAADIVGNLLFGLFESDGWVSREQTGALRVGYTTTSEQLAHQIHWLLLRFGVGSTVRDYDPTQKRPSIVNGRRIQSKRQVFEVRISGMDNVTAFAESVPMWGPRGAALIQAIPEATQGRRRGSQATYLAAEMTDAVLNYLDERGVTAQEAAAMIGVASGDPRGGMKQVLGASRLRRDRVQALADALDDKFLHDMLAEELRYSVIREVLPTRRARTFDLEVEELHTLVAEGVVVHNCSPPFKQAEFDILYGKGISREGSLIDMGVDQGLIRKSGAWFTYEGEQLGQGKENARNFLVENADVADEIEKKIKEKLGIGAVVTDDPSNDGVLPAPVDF
Description: Fluorescence Cell-Free Homogeneous Dose Retest to Identify Inhibitors of RecA-Intein Splicing Activity. [Related pubchem assays (depositor defined):AID2097, AID2223, AID489010, AID492950]. Type of assay: functional.

Assay [3] has as its target T2, Replicative DNA helicase DnaB (Mycobacterium tuberculosis, UniProt P9WMR3).
T2 sequence (P9WMR3 whole entry): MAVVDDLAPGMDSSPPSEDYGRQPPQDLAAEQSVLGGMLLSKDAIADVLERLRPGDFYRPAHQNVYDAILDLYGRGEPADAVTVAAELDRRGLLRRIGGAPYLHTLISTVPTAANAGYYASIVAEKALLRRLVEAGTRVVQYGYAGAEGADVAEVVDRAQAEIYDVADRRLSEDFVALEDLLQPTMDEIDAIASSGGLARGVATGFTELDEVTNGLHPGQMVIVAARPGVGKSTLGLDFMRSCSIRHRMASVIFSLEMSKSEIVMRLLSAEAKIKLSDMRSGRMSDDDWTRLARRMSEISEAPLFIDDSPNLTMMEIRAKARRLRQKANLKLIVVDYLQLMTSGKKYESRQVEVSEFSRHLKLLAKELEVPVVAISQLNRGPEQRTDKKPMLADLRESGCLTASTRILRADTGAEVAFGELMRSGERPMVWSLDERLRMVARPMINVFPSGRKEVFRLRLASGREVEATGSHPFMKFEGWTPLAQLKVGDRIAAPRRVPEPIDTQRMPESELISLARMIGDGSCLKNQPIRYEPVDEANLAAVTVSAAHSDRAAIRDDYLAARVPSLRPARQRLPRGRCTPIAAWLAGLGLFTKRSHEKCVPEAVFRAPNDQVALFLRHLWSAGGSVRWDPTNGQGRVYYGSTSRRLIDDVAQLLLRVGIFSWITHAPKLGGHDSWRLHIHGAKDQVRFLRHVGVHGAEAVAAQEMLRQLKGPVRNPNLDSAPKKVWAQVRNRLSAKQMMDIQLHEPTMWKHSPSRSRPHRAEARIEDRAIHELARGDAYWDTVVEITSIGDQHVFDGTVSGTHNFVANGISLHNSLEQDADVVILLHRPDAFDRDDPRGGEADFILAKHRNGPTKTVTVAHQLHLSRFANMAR
Description: DnaB intein splicing inhibitors, dose response, biochemical, cell-free fluorescence (AID 449749). In kind it is functional.

The target of assay [4] is T3, Heat shock factor protein 1 (Mus musculus, UniProt P38532).
T3 sequence (P38532 whole entry): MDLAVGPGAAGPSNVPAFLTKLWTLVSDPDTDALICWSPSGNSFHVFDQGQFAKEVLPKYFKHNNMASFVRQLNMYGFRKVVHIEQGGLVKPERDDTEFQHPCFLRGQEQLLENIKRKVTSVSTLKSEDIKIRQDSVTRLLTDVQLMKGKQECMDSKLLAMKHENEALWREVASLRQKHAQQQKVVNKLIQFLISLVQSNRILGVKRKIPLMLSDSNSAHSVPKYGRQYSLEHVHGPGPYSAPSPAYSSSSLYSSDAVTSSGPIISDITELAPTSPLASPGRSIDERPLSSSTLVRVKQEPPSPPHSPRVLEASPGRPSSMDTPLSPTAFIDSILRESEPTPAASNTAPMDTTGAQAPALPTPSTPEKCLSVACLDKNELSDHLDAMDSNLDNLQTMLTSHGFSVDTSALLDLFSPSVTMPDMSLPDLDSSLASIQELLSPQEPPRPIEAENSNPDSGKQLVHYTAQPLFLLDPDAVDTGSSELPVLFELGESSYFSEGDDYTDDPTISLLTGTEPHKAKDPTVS
Description: HSF1 potentiators in luciferase reporter cells, confirmation, cell-based, NIH3T3, luminescence, dose retest (AID 435004).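 Further: stress induced by proteasome inhibitor MG132 added 30 min after compound; luciferase reporter driven by HSF1 response element in NIH3T3 cells; actives raise luminescence as potentiators of the MG132 stress response.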 In kind it is functional. Background: In a reporter assay the amount or activity of a reporter protein is the signal.

The target in assay [5] is Heat shock protein HSP 90-alpha (Homo sapiens, UniProt P07900). Type of assay: functional, organism-based.
Assay [6] is described as follows: growth suppression of PTEN-null colon cells, dose response, cell-based, HCT116 PTEN knockout (AID 1047).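 Further: HCT116 colon tumor cells with PTEN knocked out; cells exposed to compound for 60 hours before readout; potency for loss of cell viability measured by luminescence.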 Type of assay: functional.
The nature of a further assay: cells. Type of assay: functional.
Assay [7] is described as follows: THP-1 cell cytotoxicity, dose response, cytotoxicity control for non-replicating M. tuberculosis project (AID 489025). In kind it is functional.
The nature of assay [8]: growth suppression of beta-catenin-knockout colon cells, dose response, cell-based, HCT116, human colon tumor (AID 1045).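 Further: HCT116 colon tumor cells with beta catenin knocked out; cells exposed to compound for 60 hours.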 In kind it is functional.
The nature of assay [9]: off-target signal loss in HeLa-CEM21 co-culture – HeLa F-luc CTL cells, cherry-picked, counter-screen for HIV-1 Env fusion inhibitor project, dose response (AID 652040).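 Further: potency for signal decrease marking cytotoxic or nonspecific inhibition.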 In kind it is functional, cell-based. A general note: The purpose of a counterscreen is to sort out artefacts and off-target activity.
The target of a further assay is Large T antigen (Simian virus 40, UniProt P03070). Type of assay: functional, Betapolyomavirus macacae.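 Further: Confirmatory-stage PubChem screen for compounds that inhibit SV40 T antigen.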
Sequence of Large T antigen (P03070 whole entry): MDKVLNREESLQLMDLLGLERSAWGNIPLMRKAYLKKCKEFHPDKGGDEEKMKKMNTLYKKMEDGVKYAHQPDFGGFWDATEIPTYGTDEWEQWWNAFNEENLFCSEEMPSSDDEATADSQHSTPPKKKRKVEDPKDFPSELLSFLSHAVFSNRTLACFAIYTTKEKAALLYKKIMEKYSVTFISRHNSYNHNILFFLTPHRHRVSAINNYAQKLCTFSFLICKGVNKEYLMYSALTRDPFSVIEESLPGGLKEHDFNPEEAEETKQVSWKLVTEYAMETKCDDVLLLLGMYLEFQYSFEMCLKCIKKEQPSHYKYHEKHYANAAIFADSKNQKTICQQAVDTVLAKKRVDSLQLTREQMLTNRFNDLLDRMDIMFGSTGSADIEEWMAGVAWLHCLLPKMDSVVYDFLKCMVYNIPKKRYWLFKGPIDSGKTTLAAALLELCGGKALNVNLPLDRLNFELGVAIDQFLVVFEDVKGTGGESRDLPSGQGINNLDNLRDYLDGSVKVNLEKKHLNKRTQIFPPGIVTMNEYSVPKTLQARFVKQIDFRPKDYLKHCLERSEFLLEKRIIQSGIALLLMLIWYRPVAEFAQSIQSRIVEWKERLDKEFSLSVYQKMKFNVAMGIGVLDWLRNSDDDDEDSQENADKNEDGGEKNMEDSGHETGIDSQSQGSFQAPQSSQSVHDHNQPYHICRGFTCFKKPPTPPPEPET
The next assay deals with Paired box protein Pax-8 (Homo sapiens, UniProt Q06710). The experiment in a line: inhibitors of PAX8-driven TPO luciferase reporter, dose response, RMG-I cells, cherry-pick (AID 687027).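 Further: luciferase reporter driven by Pax8 target thyroperoxidase promoter measured by SteadyGlo luminescence.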 In kind it is functional, cell-based.
Sequence of Paired box protein Pax-8 (Q06710 whole entry, the tested form may be a part): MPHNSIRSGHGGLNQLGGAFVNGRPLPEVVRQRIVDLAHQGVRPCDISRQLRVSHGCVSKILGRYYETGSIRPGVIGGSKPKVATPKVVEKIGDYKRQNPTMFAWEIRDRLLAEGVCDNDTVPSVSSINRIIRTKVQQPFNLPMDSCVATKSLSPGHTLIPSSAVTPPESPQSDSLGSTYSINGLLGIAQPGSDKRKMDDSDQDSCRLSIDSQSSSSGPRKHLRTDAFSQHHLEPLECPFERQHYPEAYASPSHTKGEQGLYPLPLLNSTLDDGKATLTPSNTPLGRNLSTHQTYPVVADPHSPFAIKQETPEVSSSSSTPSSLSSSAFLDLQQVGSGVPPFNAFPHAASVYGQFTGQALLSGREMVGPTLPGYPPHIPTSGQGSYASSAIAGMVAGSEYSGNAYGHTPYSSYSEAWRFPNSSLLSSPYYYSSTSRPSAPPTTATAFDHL
Assay [10] can be described thus: inhibitors of clade B AD8 Env fusion, dose response, cell-based, cherry-pick (AID 652062).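 Further: luciferase signal from cell-cell fusion driven by HIV-1 clade B AD8 Env; potency is for inhibitors of fusion seen as a drop in luminescence.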 In kind it is functional.
Assay [11] is described as follows: inhibitors of HIV Env-driven cell fusion, dose response, cherry-pick (AID 652057). In kind it is functional, cell-based.
A further assay concerns the target T4, Streptokinase A (Streptococcus pyogenes serotype M1, UniProt P10520).
T4 sequence (P10520 whole entry): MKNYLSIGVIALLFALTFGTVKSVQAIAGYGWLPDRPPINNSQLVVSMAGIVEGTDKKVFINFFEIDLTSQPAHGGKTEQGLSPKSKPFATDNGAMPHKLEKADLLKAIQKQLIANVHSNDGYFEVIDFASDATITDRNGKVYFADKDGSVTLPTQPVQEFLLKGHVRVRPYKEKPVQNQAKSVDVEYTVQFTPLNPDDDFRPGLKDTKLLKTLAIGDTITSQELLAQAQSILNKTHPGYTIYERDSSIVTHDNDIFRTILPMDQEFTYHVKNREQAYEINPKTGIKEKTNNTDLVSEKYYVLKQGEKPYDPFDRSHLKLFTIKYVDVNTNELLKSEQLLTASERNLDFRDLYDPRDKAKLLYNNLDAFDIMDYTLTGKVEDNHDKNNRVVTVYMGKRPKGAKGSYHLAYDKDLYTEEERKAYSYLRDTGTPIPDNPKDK
The experiment in a line: S. pyogenes streptokinase expression inhibitors, potency, dose response, plasminogen activation absorbance, OD405 (AID 1914).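 Further: secreted streptokinase activity via plasminogen activation per viability signal from cell pellet.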 In kind it is functional, Streptococcus pyogenes M1 GAS.

In another assay the test system is Streptococcus. Description: Group A Streptococcus viability loss, dose response, counter-screen for streptokinase expression inhibitor project, luminescence, BacTiterGlo (AID 1915).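 Further: potency for reduction of bacterial viability or growth.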 In kind it is functional, organism-based.
Assay [12] has as its system Streptococcus sp. 'group A'. The experiment in a line: growth inhibition of control SK(-) GAS strain, dose response, counter-screen for streptokinase expression inhibitor project, luminescence, kanamycin, BacTiterGlo, confirmation (AID 1900). Type of assay: functional, organism-based.

Sequence of FAD-linked sulfhydryl oxidase ALR (P55789 whole entry): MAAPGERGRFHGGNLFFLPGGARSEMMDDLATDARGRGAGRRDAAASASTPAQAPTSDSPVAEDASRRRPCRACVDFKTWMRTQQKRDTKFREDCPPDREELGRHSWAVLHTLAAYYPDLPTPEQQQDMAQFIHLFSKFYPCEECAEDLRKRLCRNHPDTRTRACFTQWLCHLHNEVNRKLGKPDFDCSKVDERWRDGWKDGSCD

`COc1cccc(N2CCN(C(=O)C3CCCN(S(=O)(=O)c4c[nH]cn4)C3)CC2)c1` (stereo not given): the AC50 in [1] was 16.8 µM (active). Turning to `Cc1cc(C(=O)CCl)c(C)n1CCc1ccc(Cl)cc1`, in [2], the CC50 is 2.48 µM (active). The EC50 was 7.32 µM (active) at Protein RecA and > 260 µM (inconclusive) in [4]. Also, the AC50 in [3] was 8.7 µM (active). With `Cc1ccnc(NC(c2ccccn2)c2c(C)[nH]c3ccccc23)c1` (stereo not given), in [1], the AC50 is 1.39 µM (active). Same read-out and setting: then `CN1CCCNc2nc3ccccc3nc21`, with 9.27 µM (active).

In the case of `O=C/C(=N\Nc1cccc(C(F)(F)F)c1)C(=O)c1ccccc1`, the AC50 in [5] is 6.15 µM (active).

Take `COc1ccc2[nH]c3ccc(OC)cc3c2c1`: the AC50 in assay [1] was 8.33 µM (active).

Turning to `CCCOc1ccc(-c2nc(C#N)c(NCCCn3ccnc3)o2)cc1`, the EC50 in assay [6] was 61.8 µM (active); in assay [8] it was 10.2 µM (active). Further, the IC50 in “cells” was 22.4 µM (active). In [7], the CC50 was 27.6 µM (active). On to `CCOC(=O)/C(=C/c1ccc(OC(=O)c2ccccc2)cc1)C(C)=O`, for which the AC50 in assay [5] was 2.06 µM (active). For the compound `O=C(Nc1cccc(OC(=O)N2CCOCC2)c1)N1CCOCC1`, the AC50 in assay [9] is > 70 µM (inactive). As to `Cc1cccc(-c2ncc(CN3CCC(CO)(CCCc4ccccc4)CC3)cn2)c1`, the CC50 in assay [2] is > 40 µM (active). As for `Cc1noc(C)c1C(=O)Nc1ccc(N(C)C)cc1`, the AC50 in assay [1] is 1.3 µM (active). Consider `Nc1ccc(Sc2ccccc2CC(=O)O)cc1`, for which, at Large T antigen, the IC50 was > 100 µM (active).

On to `COc1ccc(NC2CCN(C3CC(=O)N(c4ccc(F)c(Cl)c4)C3=O)CC2)cc1` (stereo not given), for which the AC50 in assay [5] is 4.11 µM (active).

On to `Oc1ccc(-c2nc3cnccn3c2Nc2ccc3c(c2)OCCO3)cc1`, for which, on Large T antigen, the IC50 is 4.14 µM (active). The EC50 in [4] is 11 µM (active). Turning to `COc1ccc(C(=O)c2ccc(Cl)c([N+](=O)[O-])c2)cc1`, the values for the AC50 (in [1]; at Paired box protein Pax-8) were 3.95 µM (active) and 7.17 µM (active), respectively. In the case of `C[C@H]1CN([C@@H](C)CO)S(=O)(=O)c2ccc(C3=CCCC3)cc2O[C@H]1CN(C)Cc1ccccc1`, the AC50 is 25.1 µM (active) in [10] and 18.5 µM (active) in assay [11]. For the compound `Cc1ccc2nccc(C(=O)N3CCCC(Nc4ccc(F)cc4)C3)c2c1` (stereo not given), in assay [1], the AC50 is 3.03 µM (active).

`COc1ccc(CC(=O)N/N=C(\C)CC(=O)Nc2ccc(N(C)C)cc2)cc1OC`: the IC50 on Large T antigen is 10.1 µM (active). In the case of `C(=NN=C1c2ccccc2-c2ccccc21)c1c[nH]c2ccccc12`, the AC50 in assay [5] was 5.17 µM (active).

On to `CN(CC(=O)Nc1ccccc1Br)C(=O)c1cccnc1Nc1cccc(C(F)(F)F)c1`, for which the CC50 in assay [2] is 19.9 µM (active). Consider `O=C(NNc1c2ccccc2nc2ccccc12)c1cccc(O)c1`, for which, in assay [1], the AC50 was 0.738 µM (active). Turning to `Cc1n[nH]c(C)c1CCOc1ccc(C(C)C)cc1`, the IC50 in “cells” was 12.2 µM (active). Further, the EC50 was > 150 µM (not active) on Streptokinase A, 43.6 µM (active) in the assay on Streptococcus and 25.1 µM (active) in [12]. In addition, the CC50 in [7] is > 40 µM (active). For `O=C(Nc1nccs1)c1ccc(COc2ccc(Cl)cc2)o1`, the CC50 in assay [7] was > 40 µM (active). As to `O=C(Nc1nnc(-c2ccc3c(c2)CCCC3)o1)c1c(F)cccc1F`, in [1], the AC50 is 7.99 µM (active). The IC50 in the assay “cells” is 4.08 µM (active). For the same compound, the EC50 in the assay on Streptococcus is 7.35 µM (active); in assay [12], 1.77 µM (active).
